Test results reported in PubChem BioAssay (NCI).
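A five-concentration, 48-hour dose response in 96-well plates underlies each endpoint, interpolated linearly between surrounding concentrations. At the GI50, growth is halved. TGI: total growth inhibition.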

Experiments:
Assay in all cases: inhibition of tumour cell growth, NCI panel, 48 h
786-0 renal = test system: 786-0 renal
A498 renal = test system: A498 renal
A549 NSCLC = test system: A549 NSCLC
ACHN renal = test system: ACHN renal
BT-549 breast = test system: BT-549 breast
CAKI-1 renal = test system: CAKI-1 renal
CCRF-CEM leukemia = test system: CCRF-CEM leukemia
COLO 205 colon = test system: COLO 205 colon
DU-145 prostate = test system: DU-145 prostate
EKVX NSCLC = test system: EKVX NSCLC
HCC-2998 colon = test system: HCC-2998 colon
HCT-116 colon = test system: HCT-116 colon
HCT-15 colon = test system: HCT-15 colon
HL-60(TB) leukemia = test system: HL-60(TB) leukemia
HOP-62 NSCLC = test system: HOP-62 NSCLC
HOP-92 NSCLC = test system: HOP-92 NSCLC
HS 578T breast = test system: HS 578T breast
HT29 colon = test system: HT29 colon
IGROV1 ovarian = test system: IGROV1 ovarian
K-562 leukemia = test system: K-562 leukemia
KM12 colon = test system: KM12 colon
LOX IMVI melanoma = test system: LOX IMVI melanoma
M14 melanoma = test system: M14 melanoma
MALME-3M melanoma = test system: MALME-3M melanoma
MCF7 breast = test system: MCF7 breast
MDA-MB-231 breast = test system: MDA-MB-231 breast
MOLT-4 leukemia = test system: MOLT-4 leukemia
NCI-H226 lung = test system: NCI-H226 lung
NCI-H23 lung = test system: NCI-H23 lung
NCI-H460 lung = test system: NCI-H460 lung
NCI-H522 lung = test system: NCI-H522 lung
NCI/ADR-RES ovarian = test system: NCI/ADR-RES ovarian
OVCAR-3 ovarian = test system: OVCAR-3 ovarian
OVCAR-4 ovarian = test system: OVCAR-4 ovarian
OVCAR-5 ovarian = test system: OVCAR-5 ovarian
OVCAR-8 ovarian = test system: OVCAR-8 ovarian
PC-3 prostate = test system: PC-3 prostate
RPMI-8226 leukemia = test system: RPMI-8226 leukemia
RXF 393 renal = test system: RXF 393 renal
SF-268 CNS = test system: SF-268 CNS
SF-295 CNS = test system: SF-295 CNS
SF-539 CNS = test system: SF-539 CNS
SK-MEL-2 melanoma = test system: SK-MEL-2 melanoma
SK-MEL-28 melanoma = test system: SK-MEL-28 melanoma
SK-MEL-5 melanoma = test system: SK-MEL-5 melanoma
SK-OV-3 ovarian = test system: SK-OV-3 ovarian
SN12C renal = test system: SN12C renal
SNB-19 CNS = test system: SNB-19 CNS
SNB-75 CNS = test system: SNB-75 CNS
SR leukemia = test system: SR leukemia
SW-620 colon = test system: SW-620 colon
T-47D breast = test system: T-47D breast
TK-10 renal = test system: TK-10 renal
U251 CNS = test system: U251 CNS
UACC-257 melanoma = test system: UACC-257 melanoma
UACC-62 melanoma = test system: UACC-62 melanoma
UO-31 renal = test system: UO-31 renal
MDA-MB-435 = test system: MDA-MB-435

## Cc1cc(Cl)cc(NS(=O)(=O)c2ccc(-c3cnc(C4CC4)o3)cc2)c1
786-0 renal
  GI50: 1.06 µM
  TGI: 15.9 µM
A498 renal
  GI50: 0.0726 µM
  TGI: 1.28 µM
A549 NSCLC
  GI50: 0.565 µM
  TGI: 16.6 µM
ACHN renal
  GI50: 0.758 µM
  TGI: 14.1 µM
BT-549 breast
  GI50: 1.63 µM
  TGI: 16.4 µM
CAKI-1 renal
  GI50: 0.125 µM
  TGI: 14.5 µM
CCRF-CEM leukemia
  GI50: 0.172 µM
  TGI: 17.7 µM
COLO 205 colon
  GI50: 0.322 µM
  TGI: 2.71 µM
DU-145 prostate
  GI50: 0.374 µM
  TGI: 15.1 µM
EKVX NSCLC
  GI50: 0.499 µM
  TGI: 16.7 µM
HCC-2998 colon
  GI50: 0.745 µM
  TGI: 12.6 µM
HCT-116 colon
  GI50: 0.347 µM
  TGI: 11.1 µM
HCT-15 colon
  GI50: 0.106 µM
  TGI: 12.1 µM
HL-60(TB) leukemia
  GI50: 0.156 µM
  TGI: 2.57 µM
HOP-62 NSCLC
  GI50: 0.376 µM
  TGI: 16.4 µM
HOP-92 NSCLC
  GI50: 0.151 µM
  TGI: 4.28 µM
HS 578T breast
  GI50: 0.3 µM
  TGI: 14.1 µM
HT29 colon
  GI50: 0.313 µM
  TGI: 12.1 µM
IGROV1 ovarian
  GI50: 0.331 µM
  TGI: 13.5 µM
K-562 leukemia
  GI50: 0.051 µM
  TGI: > 33.2 µM
KM12 colon
  GI50: 0.303 µM
  TGI: 13.3 µM
LOX IMVI melanoma
  GI50: 0.279 µM
  TGI: 11.1 µM
M14 melanoma
  GI50: 0.351 µM
  TGI: 14.2 µM
MALME-3M melanoma
  GI50: 0.712 µM
  TGI: 22.2 µM
MCF7 breast
  GI50: 0.0702 µM
  TGI: 13.8 µM
MDA-MB-231 breast
  GI50: 0.656 µM
  TGI: 14.5 µM
MOLT-4 leukemia
  GI50: 0.451 µM
  TGI: 31.1 µM
NCI-H226 lung
  GI50: 0.454 µM
  TGI: 9.89 µM
NCI-H23 lung
  GI50: 0.52 µM
  TGI: 13.8 µM
NCI-H460 lung
  GI50: 0.264 µM
  TGI: 7.22 µM
NCI-H522 lung
  GI50: 0.465 µM
  TGI: 14.3 µM
NCI/ADR-RES ovarian
  GI50: 0.161 µM
  TGI: 8.91 µM
OVCAR-3 ovarian
  GI50: 0.122 µM
  TGI: 3.44 µM
OVCAR-4 ovarian
  GI50: 1.07 µM
  TGI: 19.8 µM
OVCAR-5 ovarian
  GI50: 0.565 µM
  TGI: 15.5 µM
OVCAR-8 ovarian
  GI50: 0.716 µM
  TGI: 18 µM
PC-3 prostate
  GI50: 0.205 µM
  TGI: 11.9 µM
RPMI-8226 leukemia
  GI50: 0.232 µM
  TGI: 4.75 µM
RXF 393 renal
  GI50: 0.16 µM
  TGI: 0.556 µM
SF-268 CNS
  GI50: 1.27 µM
  TGI: 16.5 µM
SF-295 CNS
  GI50: 0.146 µM
  TGI: 11 µM
SF-539 CNS
  GI50: 0.27 µM
  TGI: 3.2 µM
SK-MEL-2 melanoma
  GI50: 1.05 µM
  TGI: 20.9 µM
SK-MEL-28 melanoma
  GI50: 1.28 µM
  TGI: 19.5 µM
SK-MEL-5 melanoma
  GI50: 0.322 µM
  TGI: 6.98 µM
SK-OV-3 ovarian
  GI50: 0.783 µM
  TGI: 22.6 µM
SN12C renal
  GI50: 0.986 µM
  TGI: 13.9 µM
SNB-19 CNS
  GI50: 0.412 µM
  TGI: 15.6 µM
SNB-75 CNS
  GI50: 0.128 µM
  TGI: 1.7 µM
SR leukemia
  GI50: 0.0465 µM
  TGI: 19.1 µM
SW-620 colon
  GI50: 0.218 µM
  TGI: 15.5 µM
T-47D breast
  GI50: 0.379 µM
  TGI: 26.2 µM
TK-10 renal
  GI50: 6.22 µM
  TGI: 23 µM
U251 CNS
  GI50: 0.436 µM
  TGI: 15.6 µM
UACC-257 melanoma
  GI50: 3.18 µM
  TGI: 20.8 µM
UACC-62 melanoma
  GI50: 0.174 µM
  TGI: 12 µM
UO-31 renal
  GI50: 0.798 µM
  TGI: 14.8 µM

## O=C1NC(=C(Cl)Cl)/C(=N/S(=O)(=O)N2CCCCC2CC2(C(F)(F)F)N=N2)N1 (stereo not drawn)
786-0 renal
  GI50: 3.2 µM
  TGI: 9.62 µM
A498 renal
  GI50: 11.4 µM
  TGI: 24.1 µM
A549 NSCLC
  GI50: 3.72 µM
  TGI: 14 µM
ACHN renal
  GI50: 1.74 µM
  TGI: 3.12 µM
BT-549 breast
  GI50: 1.89 µM
  TGI: 3.67 µM
CAKI-1 renal
  GI50: 1.7 µM
  TGI: 3.09 µM
CCRF-CEM leukemia
  GI50: 1.99 µM
  TGI: 5.57 µM
COLO 205 colon
  GI50: 1.89 µM
  TGI: 3.68 µM
DU-145 prostate
  GI50: 3.47 µM
  TGI: 11.8 µM
EKVX NSCLC
  GI50: 2.04 µM
  TGI: 4.33 µM
HCC-2998 colon
  GI50: 1.86 µM
  TGI: 3.38 µM
HCT-116 colon
  GI50: 1.73 µM
  TGI: 3.26 µM
HCT-15 colon
  GI50: 0.398 µM
  TGI: 1.5 µM
HOP-62 NSCLC
  GI50: 3.22 µM
  TGI: 13.5 µM
HOP-92 NSCLC
  GI50: 1.73 µM
  TGI: 3.61 µM
HS 578T breast
  GI50: 2.83 µM
  TGI: 9.84 µM
HT29 colon
  GI50: 1.88 µM
  TGI: 3.61 µM
IGROV1 ovarian
  GI50: 1.58 µM
  TGI: 3.09 µM
K-562 leukemia
  GI50: 0.628 µM
  TGI: 10.8 µM
KM12 colon
  GI50: 3.14 µM
  TGI: 12.2 µM
LOX IMVI melanoma
  GI50: 0.43 µM
  TGI: 1.58 µM
M14 melanoma
  GI50: 1.85 µM
  TGI: 3.93 µM
MALME-3M melanoma
  GI50: 1.57 µM
  TGI: 2.99 µM
MCF7 breast
  GI50: 0.769 µM
  TGI: 11.8 µM
MDA-MB-231 breast
  GI50: 1.73 µM
  TGI: 3.44 µM
MDA-MB-435
  GI50: 2.24 µM
  TGI: 5.38 µM
MOLT-4 leukemia
  GI50: 1.68 µM
  TGI: 4.43 µM
NCI-H226 lung
  GI50: 15.5 µM
  TGI: 44.4 µM
NCI-H23 lung
  GI50: 1.71 µM
  TGI: 3.77 µM
NCI-H460 lung
  GI50: 3.06 µM
  TGI: 10.7 µM
NCI-H522 lung
  GI50: 1.54 µM
  TGI: 3.13 µM
NCI/ADR-RES ovarian
  GI50: 3.45 µM
  TGI: 15.4 µM
OVCAR-3 ovarian
  GI50: 2.05 µM
  TGI: 4.13 µM
OVCAR-4 ovarian
  GI50: 1.76 µM
  TGI: 3.2 µM
OVCAR-5 ovarian
  GI50: 1.9 µM
  TGI: 3.84 µM
OVCAR-8 ovarian
  GI50: 2.21 µM
  TGI: 5.17 µM
PC-3 prostate
  GI50: 2.26 µM
  TGI: 6.37 µM
RPMI-8226 leukemia
  GI50: 0.385 µM
  TGI: 8.08 µM
RXF 393 renal
  GI50: 1.67 µM
  TGI: 3.22 µM
SF-268 CNS
  GI50: 3.35 µM
  TGI: 13.1 µM
SF-295 CNS
  GI50: 3.23 µM
  TGI: 12.1 µM
SF-539 CNS
  GI50: 1.79 µM
  TGI: 3.56 µM
SK-MEL-2 melanoma
  GI50: 1.86 µM
  TGI: 3.9 µM
SK-MEL-28 melanoma
  GI50: 1.85 µM
  TGI: 3.33 µM
SK-MEL-5 melanoma
  GI50: 2.4 µM
  TGI: 5.93 µM
SK-OV-3 ovarian
  GI50: 15.1 µM
  TGI: 29.8 µM
SN12C renal
  GI50: 1.29 µM
  TGI: 2.57 µM
SNB-19 CNS
  GI50: 2 µM
  TGI: 4.53 µM
SNB-75 CNS
  GI50: 3.5 µM
  TGI: 17.4 µM
SR leukemia
  GI50: 0.431 µM
  TGI: 2.67 µM
SW-620 colon
  GI50: 1.67 µM
  TGI: 3.24 µM
T-47D breast
  GI50: 4.16 µM
  TGI: 22.1 µM
TK-10 renal
  GI50: 4.53 µM
  TGI: 14.2 µM
U251 CNS
  GI50: 1.86 µM
  TGI: 3.67 µM
UACC-257 melanoma
  GI50: 1.96 µM
  TGI: 4.48 µM
UACC-62 melanoma
  GI50: 1.74 µM
  TGI: 3.57 µM
UO-31 renal
  GI50: 2.69 µM
  TGI: 12.4 µM
